According to patent US20050101595A1, “N-containing cycloalkyl-substituted amino-thiazole derivatives and pharmaceutical compositions for inhibiting cell proliferation and methods for their use” (PFIZER INC., priority 2003, published 2005):
Structures can show the parent of a compound that is named as a salt. Where two headings read alike, the source gives them in different places.

How the values were obtained:
CDK2/Cyclin A = CDK2/Cyclin A (Homo sapiens, UniProt P24941); experiment: Inhibition of CDK2/Cyclin A Retinoblastoma Kinase Activity; format: biochemical; details: for Ki: apparent Ki, CDK2/proteolyzed cyclin A, Rb fragment substrate, 25 μM ATP; for inhibition at 0.05 µM: read-out: % inhibition of CDK2 (@ 0.05 μM), compound at 0.05 μM
How it was run: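 Percent inhibition is calculated against DMSO-only wells after subtracting no-enzyme background. The enzyme is human CDK2 complexed with proteolyzed cyclin A, used at 10 nM or 19 nM on an Rb fragment with 25 μM [32/33P]ATP, at pH 7.4 and 30° C.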

[1] = target: human CDK4 and genetically truncated (1-264) cyclin D3 (Homo sapiens, UniProt P11802); experiment: Inhibition of CDK4/Cyclin D Retinoblastoma Kinase Activity; format: biochemical; details: apparent Ki, CDK4/truncated cyclin D3, Rb fragment substrate, 25 μM ATP
Chain of human CDK4 and genetically truncated (1-264) cyclin D3 (P11802 whole entry, the tested form may be a part): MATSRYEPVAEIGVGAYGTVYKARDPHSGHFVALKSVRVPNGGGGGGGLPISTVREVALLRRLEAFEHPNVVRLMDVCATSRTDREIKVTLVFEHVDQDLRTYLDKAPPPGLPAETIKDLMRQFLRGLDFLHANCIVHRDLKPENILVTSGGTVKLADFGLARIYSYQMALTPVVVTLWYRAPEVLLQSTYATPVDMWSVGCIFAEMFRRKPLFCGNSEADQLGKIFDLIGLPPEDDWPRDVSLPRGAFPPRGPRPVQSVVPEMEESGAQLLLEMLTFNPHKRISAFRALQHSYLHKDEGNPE
Chain of human CDK4 and genetically truncated (1-264) cyclin D3 (P30281 1-264 partner): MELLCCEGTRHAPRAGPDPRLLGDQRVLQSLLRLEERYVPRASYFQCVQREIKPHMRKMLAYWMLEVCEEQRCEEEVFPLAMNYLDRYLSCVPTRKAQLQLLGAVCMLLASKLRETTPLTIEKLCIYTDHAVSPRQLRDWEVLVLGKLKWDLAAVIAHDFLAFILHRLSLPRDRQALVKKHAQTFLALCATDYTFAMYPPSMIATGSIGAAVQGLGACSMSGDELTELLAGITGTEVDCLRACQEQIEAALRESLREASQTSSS
Protocol: Cyclin-dependent kinase activity was measured by quantifying the enzyme-catalyzed, time-dependent incorporation of radioactive phosphate from [^32P]ATP or [^33P]ATP into a protein substrate. Unless noted otherwise, assays were performed in 96-well plates in a total volume of 50 μL, in the presence of 10 mM HEPES (N-[2-hydroxyethyl]piperazine-N′-[2-ethanesulfonic acid]) (pH 7.4), 10 mM MgCl2, 25 μM adenosine triphosphate (ATP), 1 mg/mL ovalbumin, 5 μg/mL leupeptin, 1 mM dithiothreitol, 10 mM β-glycerophosphate, 0.1 mM sodium vanadate, 1 mM sodium fluoride, 2.5 mM ethylene glycol-bis(β-aminoethyl ether)-N,N,N′N′-tetraacetic acid (EGTA), 2% (v/v) dimethylsulfoxide, and 0.03-0.4 μCi [^32/33P]ATP per reaction. Reactions were initiated with enzyme, incubated at 30° C., and terminated after 20 minutes by the addition of ethylenediaminetetraacetic acid (EDTA) to 250 mM. The phosphorylated substrate was then captured on a nitrocellulose or phosphocellulose membrane using a 96-well filtration manifold, and unincorporated radioactivity was removed by repeated washing with 0.85% phosphoric acid. Radioactivity was quantified by exposing the dried membranes to a phosphorimager.
Inhibition was measured relative to control wells that contained all reaction components including 2% (v/v) DMSO but no compound, after subtraction of background radioactivity measured in the absence of enzyme. Apparent Ki values of discrete compounds were measured by assaying enzyme activity in the presence of different inhibitor compound concentrations and subtracting the background radioactivity measured in the absence of enzyme. The kinetic parameters (kcat, Km for ATP) were measured for each enzyme under the usual assay conditions by determining the dependence of initial rates on ATP concentration. Inhibition data were fit to an equation for competitive inhibition using Kaleidagraph (Synergy Software), or were fit to an equation for competitive tight-binding inhibition using the software KineTic (BioKin, Ltd.).
Inhibition of CDK4/Cyclin D Retinoblastoma Kinase Activity:
A complex of human CDK4 and genetically truncated (1-264) cyclin D3 was purified using traditional biochemical chromatographic techniques from insect cells that had been co-infected with the corresponding baculovirus expression vectors (see e.g., Meijer and Kim, “Chemical Inhibitors of Cyclin-Dependent Kinases,” Methods in Enzymol,. vol. 283 (1997), pp. 113-128.). The enzyme complex (5 nM) was assayed with 0.3-0.5 μg of purified recombinant retinoblastoma protein fragment (Rb) as a substrate. The engineered Rb fragment (residues 386-928 of the native retinoblastoma protein; 62.3 kDa) contains the majority of the phosphorylation sites found in the native 106-kDa protein, as well as a tag of six histidine residues for ease of purification. Phosphorylated Rb substrate was captured by microfiltration on a nitrocellulose membrane and quantified using a phosphorimager as described above. For measurement of tight-binding inhibitors, the assay duration was extended to 60 minutes, during which the time-dependence of product formation was linear and initial rate conditions were met.

HCT-116 cell line = experiment: Inhibition of cell growth, tetrazolium salt (MTT) assay; format: cell-based; details: Homo sapiens, MTT; for IC50: HCT-116, 120 h, three to five days, read-out: HCT-116 IC50; for inhibition at 0.175 µM: HCT-116, HCT-116 cells, compound at 0.175 uM
How it was run: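 Growth inhibition is scored relative to cells receiving only 0.5% (v/v) DMSO. Plated cells rest 4 h, then take compound for three to five days at 37° C; MTT reduction to formazan is read at 540 nm.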

Compound	Ki (CDK2/Cyclin A) [nM]	Ki [1] [nM]	further results
CC1(C)CC(Nc2nc(N)c(C(=O)c3c(F)cccc3F)s2)CC(C)(C)N1 [Example A2, [4-Amino-2-(2,2,6,6-tetramethyl-piperidin-4-ylamino)-thiazol-5-yl]-(2,6-difluoro-phenyl)-methanone]	> 5000	> 2000	–
COc1ccc(Cl)cc1C(=O)N1CCC(Nc2nc(N)c(C(=O)c3c(F)cccc3F)s2)CC1 [Example D19, {4-Amino-2-[1-(5-chloro-2-methoxy-benzoyl)-piperidin-4-ylamino]-thiazol-5-yl}-(2,6-difluoro-phenyl)-methanone]	105	79	–
CC(=O)/C=C/C(=O)N1CCC(Nc2nc(N)c(C(=O)c3c(F)cccc3F)s2)CC1 [Example D16, 1-{4-[4-Amino-5-(2,6-difluoro-benzoyl)-thiazol-2-ylamino]-piperidin-1-yl}-pent-2(E)-ene-1,4-dione]	–	140	IC50 (HCT-116 cell line; first HCT-116 column (c4)): 82 nM; IC50 (HCT-116 cell line; second HCT-116 column (c5)): 150 nM
CCOC(=O)N1CCC(Nc2nc(N)c(C(=O)c3c(F)cccc3F)s2)CC1 [Example A1, 4-[4-Amino-5-(2,6-difluoro-benzoyl)-thiazol-2-ylamino]-piperidine-1-carboxylic Acid Ethyl Ester]	190	82	–
COc1ccccc1/C=C\C(=O)N1CCC(Nc2nc(N)c(C(=O)c3c(F)cccc3F)s2)CC1 [Example D18, 1-{4-[4-Amino-5-(2,6-difluoro-benzoyl)-thiazol-2-ylamino]-piperidin-1-yl}3(Z)-(2-methoxy-phenyl)-propenone]	54	18	–
Nc1nc(NC2CCN(S(=O)(=O)CCN3CCC(c4ccccc4)C3)CC2)sc1C(=O)c1c(F)cccc1F (centres unmarked) [Example N5, (4-Amino-2-{1-[2-(3-phenyl-pyrrolidin-1-yl)-ethanesulfonyl]-piperidin-4-ylamino}-thiazol-5-yl)-(2,6-difluoro-phenyl)-methanone Hydrochloride Salt.]	1.8	1.5	–
COc1ccc(OC)c(NC(=O)N2CCC(Nc3nc(N)c(C(=O)c4c(F)cccc4F)s3)CC2)c1 [Example B4, 4-[4-Amino-5-(2,6-difluoro-benzoyl)-thiazol-2-ylamino]-piperidine-1-carboxylic Acid (2,5-Dimethoxy-phenyl)-amide]	66	62	–
CS(=O)(=O)N1CCC(Nc2nc(N)c(C(=O)c3c(F)cccc3F)s2)C1 (centres unmarked) [Example F39, [4-Amino-2-(1-methanesulfonyl-pyrrolidin-3-ylamino)-thiazol-5-yl]-(2,6-difluoro-phenyl)-methanone]	520	330	–
Nc1nc(NC2CCN(S(=O)(=O)c3ccc(-n4ccnc4)cc3)CC2)sc1C(=O)c1c(F)cccc1F [Example G30, 1-{4-Amino-2-[1-(4-imidazol-1-yl-benzenesulfonyl)-piperidin-4-ylamino]-thiazol-5-yl}-1-(2,6-difluoro-phenyl)-methanone]	0.31	0.45	–
Nc1nc(NC2CCN(C(=O)c3ccc(Br)cc3)C2)sc1C(=O)c1c(F)cccc1F (centres unmarked) [Example C18, {4-Amino-2-[1-(4-bromo-benzoyl)-pyrrolidin-3-ylamino]-thiazol-5-yl}-(2,6-difluoro-phenyl)-methanone]	77	210	–
Nc1nc(NC2CCNCC2)sc1C(=O)c1c(F)cccc1F [Example A6, [4-Amino-2-(piperidin-4-ylamino)-thiazol-5-yl]-(2,6-difluoro-phenyl)-methanone]	1000	830	–
N#Cc1ccc(S(=O)(=O)N2CC[C@H](Nc3nc(N)c(C(=O)c4c(F)cccc4F)s3)C2)cc1 [Example F40, 4-{3S-[4-Amino-5-(2,6-difluoro-benzoyl)-thiazol-2-ylamino]-pyrrolidine-1-sulfonyl}-benzonitrile]	58	380	–
Nc1nc(NC2CCN(S(=O)(=O)c3ccc([N+](=O)[O-])cn3)CC2)sc1C(=O)c1c(F)cccc1F [Example F29, 1-{4-Amino-2-[1-(5-nitro-pyridine-2-sulfonyl)-piperidin-4-ylamino]-thiazol-5-yl}-1-(2,6-difluoro-phenyl)-methanone]	1000	400	–
CS(=O)(=O)N1CC[C@H](Nc2nc(N)c(C(=O)c3c(F)cccc3F)s2)C1 [Example F41, [4-3S-Amino-2-(1-methanesulfonyl-pyrrolidin-3-ylamino)-thiazol-5-yl]-(2,6-difluoro-phenyl)-methanone]	750	1600	–
Nc1nc(NC2CCN(S(=O)(=O)c3ccc(Cl)nc3)CC2)sc1C(=O)c1c(F)cccc1F [Example F21, 1-(4-Amino-2-[1-(6-chloro-pyridine-3-sulfonyl)-piperidin-4-ylamino]-thiazol-5-yl}-1-(2,6-difluoro-phenyl)-methanone]	1.7	2.5	–
CN(C)S(=O)(=O)N1CCC(Nc2nc(N)c(C(=O)c3c(F)cccc3F)s2)CC1 [Example E1, 4-[4-Amino-5-(2,6-difluoro-benzoyl)-thiazol-2-ylamino]-piperidine-1-sulfonic acid dimethylamide]	14	22	–
Nc1nc(NC2CCN(S(=O)(=O)CCCn3ccnn3)CC2)sc1C(=O)c1c(F)cccc1F [Example K3, 1-{4-Amino-2-[1-(3-triazol-1-yl-propane-1-sulfonyl)-piperidin-4-ylamino]-thiazol-5-yl}-1-(2,6-difluoro-phenyl)-methanone.]	4.4	4	–
CC(C)NC(=O)N1CCC(Nc2nc(N)c(C(=O)c3c(F)cccc3F)s2)CC1 [Example B1, 4-[4-Amino-5-(2,6-difluoro-benzoyl)-thiazol-2-ylamino]-piperidine-1-carboxylic Acid Isopropylamide]	410	380	–
Cc1ccc(C(=O)/C=C/C(=O)N2CCC(Nc3nc(N)c(C(=O)c4c(F)cccc4F)s3)CC2)cc1 [Example D9, 1-{4-[4-Amino-5-(2,6-difluoro-benzoyl)-thiazol-2-ylamino]-piperidin-1-yl}-4-p-tolyl-but-2(E)-ene-1,4-dione]	510	150	–
Nc1nc(NC2CCN(S(=O)(=O)CCCN3CCC(F)(F)CC3)CC2)sc1C(=O)c1c(F)cccc1F [Example V168]	–	–	inhibition at 0.05 µM (CDK2/Cyclin A): 83%; inhibition at 0.175 µM (HCT-116 cell line): 37%
Nc1nc(NC2CCN(S(=O)(=O)CCCN3CCN(CCO)CC3)CC2)sc1C(=O)c1c(F)cccc1F [Example V34]	–	–	inhibition at 0.05 µM (CDK2/Cyclin A): 67%; inhibition at 0.175 µM (HCT-116 cell line): 16%
Nc1nc(NC2CCN(S(=O)(=O)CCCNCc3cccnc3)CC2)sc1C(=O)c1c(F)cccc1F [Example V6]	–	–	inhibition at 0.05 µM (CDK2/Cyclin A): 80%; inhibition at 0.175 µM (HCT-116 cell line): 1%
Cc1c(CNCCCS(=O)(=O)N2CCC(Nc3nc(N)c(C(=O)c4c(F)cccc4F)s3)CC2)cnn1C [Example V173]	–	–	inhibition at 0.05 µM (CDK2/Cyclin A): 85%; inhibition at 0.175 µM (HCT-116 cell line): 0%
Nc1nc(NC2CCN(S(=O)(=O)CCCNCCCO)CC2)sc1C(=O)c1c(F)cccc1F [Example V4]	–	–	inhibition at 0.05 µM (CDK2/Cyclin A): 75%; inhibition at 0.175 µM (HCT-116 cell line): 19%
Nc1nc(NC2CCN(S(=O)(=O)CCCNC3CCOCC3)CC2)sc1C(=O)c1c(F)cccc1F [Example V153]	–	–	inhibition at 0.05 µM (CDK2/Cyclin A): 84%; inhibition at 0.175 µM (HCT-116 cell line): 0%
COC(=O)CCCNCCCS(=O)(=O)N1CCC(Nc2nc(N)c(C(=O)c3c(F)cccc3F)s2)CC1 [Example V141]	–	–	inhibition at 0.05 µM (CDK2/Cyclin A): 82%; inhibition at 0.175 µM (HCT-116 cell line): 22%
